Source: patent US20260306525A1, “COMBINATION THERAPY GLUCOCORTICOIDS AND GINSENOSIDE” (FYTAGORAS B.V., priority 2023, published 2026)
pIC50: −log10 of the molar value.

Target: T1, GR (Homo sapiens, UniProt P04150)
T1 sequence (P04150 1-777): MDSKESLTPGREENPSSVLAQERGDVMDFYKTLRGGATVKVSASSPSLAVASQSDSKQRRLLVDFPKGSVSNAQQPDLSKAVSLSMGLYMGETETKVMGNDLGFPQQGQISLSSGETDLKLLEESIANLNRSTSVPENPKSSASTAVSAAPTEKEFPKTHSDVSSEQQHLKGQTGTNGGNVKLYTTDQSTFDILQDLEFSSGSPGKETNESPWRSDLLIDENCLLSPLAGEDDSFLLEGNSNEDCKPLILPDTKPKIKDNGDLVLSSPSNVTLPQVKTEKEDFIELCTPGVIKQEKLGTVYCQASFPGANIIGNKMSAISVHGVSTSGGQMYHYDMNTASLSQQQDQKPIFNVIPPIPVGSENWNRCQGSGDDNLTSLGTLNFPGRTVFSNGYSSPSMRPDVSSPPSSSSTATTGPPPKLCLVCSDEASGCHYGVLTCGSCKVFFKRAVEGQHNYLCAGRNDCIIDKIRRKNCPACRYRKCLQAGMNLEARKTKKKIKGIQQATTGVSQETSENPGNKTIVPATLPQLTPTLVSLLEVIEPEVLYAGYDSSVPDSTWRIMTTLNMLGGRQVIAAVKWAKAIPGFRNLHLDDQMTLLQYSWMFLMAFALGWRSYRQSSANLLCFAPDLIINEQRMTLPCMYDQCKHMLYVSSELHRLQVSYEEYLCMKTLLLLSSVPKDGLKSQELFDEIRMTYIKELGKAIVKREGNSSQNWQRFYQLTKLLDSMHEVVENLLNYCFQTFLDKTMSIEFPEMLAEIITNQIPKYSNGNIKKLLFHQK
Test: PolarScreen Glucocorticoid Receptor competitive binding assay
Design: followed by GR Full Length (partially purified receptor in storage buffer); purchased ThermoFisher Scientific
Experimental: To determine the relative binding affinities of the different compounds for the human GR in vitro, the PolarScreen™ Glucocorticoid Receptor Competitor Assay Kit (ThermoFisher Scientific, Waltham, MA, USA) was used following the manufacturer's instructions. Briefly, test compounds were first dissolved in DMSO to a 10 mM stock concentration and further diluted in GR buffer (100 mM potassium phosphate (pH 7.4), 200 mM Na2MoO4, 1 mM EDTA, and 20% DMSO). Serial dilutions of the compounds were transferred to a Corning® black 384-well plate and Fluormone GS red™ was added, followed by GR Full Length (partially purified receptor in storage buffer). The plate was incubated for 4 h at RT in the dark and fluorescence polarization was measured with a CLARIOStar Microplate Reader (BMG Labtech, Ortenberg, Germany). Obtained values were normalized to the assay maximum (no ligand) and minimum control (10 µM dexamethasone), and relative percentages of polarization were determined. Dose-response curves were fitted enabling the calculations of IC50 values for each compound.

Structure (SMILES): CC(C)=CCC[C@](C)(O[C@@H]1O[C@H](CO)[C@@H](O)[C@H](O)[C@H]1O)[C@H]1CC[C@]2(C)[C@@H]1[C@H](O)C[C@@H]1[C@@]3(C)CC[C@H](O)C(C)(C)[C@@H]3[C@@H](O[C@@H]3O[C@H](CO)[C@@H](O)[C@H](O)[C@H]3O)C[C@]12C [Rg1, (3β,6α, 12β)-3,12-Dihydroxydammar-24-ene-6,20-diyl bis-β-D-glucopyranoside]
- pIC50 (fluorescence polarization, 4 h at RT): 4.66
- relative GR binding affinity, times lower than beclomethasone (vs beclomethasone): ~ 4,000 times
